Results on 4 compounds are retold here after patent US8486994B2, “Prodrugs of substituted 1,3-dioxanes and their uses” (Evolva SA, priority 2007, dated 2013).

Series [1] deals with T1, Human Recombinant (E. coli) PPARgamma (Homo sapiens, UniProt P37231).
T1 construct: host or cells: E. coli
T1 sequence (P37231 1-505): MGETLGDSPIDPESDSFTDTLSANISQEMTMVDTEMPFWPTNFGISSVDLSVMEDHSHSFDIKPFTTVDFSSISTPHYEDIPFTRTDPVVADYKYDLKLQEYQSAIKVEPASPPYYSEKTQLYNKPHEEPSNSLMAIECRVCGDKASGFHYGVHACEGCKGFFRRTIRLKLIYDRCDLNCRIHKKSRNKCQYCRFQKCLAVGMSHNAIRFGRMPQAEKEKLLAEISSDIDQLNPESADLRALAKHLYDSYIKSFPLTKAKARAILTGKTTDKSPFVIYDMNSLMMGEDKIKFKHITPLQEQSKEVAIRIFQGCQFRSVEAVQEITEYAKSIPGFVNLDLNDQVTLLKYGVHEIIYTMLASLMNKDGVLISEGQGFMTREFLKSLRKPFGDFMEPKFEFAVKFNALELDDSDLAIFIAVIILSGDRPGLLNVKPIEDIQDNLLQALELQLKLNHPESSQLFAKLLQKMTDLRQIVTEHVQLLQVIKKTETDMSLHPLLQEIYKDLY
Nature of the series: PPAR gamma binding assay ([3H]-rosiglitazone). The method, then: Human Recombinant (E. coli) PPARgamma) (h) Binding Assay:
The results are expressed as a percent of control specific binding ((measured specific binding/control specific binding)×100) obtained in the presence of the test compounds. The IC50 values (concentration causing a half-maximal inhibition of control specific binding) and Hill coefficients (nil) were determined by non-linear regression analysis of the competition curves generated with mean replicate values using Hill equation curve fitting (Y=D+[(A−D)/(1+(C/C50)nH)], where Y=specific binding, D=minimum specific binding, A=maximum specific binding, C=compound concentration, C50=IC50, and nH=slope factor). This analysis is performed using a software developed at Cerep (Hill software) and validated by comparison with data generated by the commercial software SigmaPlot® 4.0 for Windows® (© 1997 by SPSS Inc.). The inhibition constants (Ki) are calculated using the Cheng Prusoff equation (Ki=IC50/(1+(L/KD)), where L=concentration of radioligand in the assay, and KD=affinity of the radioligand for the receptor).

Another series concerns TP Receptor. Nature of the series: TP Receptor Platelet Aggregation - Rabbit (U-46619-induced, platelet rich plasma). It counts as cell-based, New Zealand Rabbit. To be noted: at 0.1 mM; 1.5 μM U-46619. The protocol: Using these experimental conditions New Zealand Rabbit (2.75±0.25 kg) platelet rich plasma, Vehicle: 0.3% DMSO, Assay: Inhibition of 1.5 μM U-46619-induced platelet aggregation, Incubation Time, Temp: 5 min at 37° C., Incubation Buffer: Trisodium Citrate (0.13 M)-treated platelet rich plasma, Bath Volume: 0.5 mL, Time of Assessment: 5 min, Quantification Method: Optical Density Change. the assay performed according to Patscheke, H., and Stregmeier, K. (1984) Investigations on a selective non-prostanoic thromboxane antagonist, BM13,177, in human platelets. Thrombosis Research 33:277-288
(§1) The data were transformed to semi-log and then analysed using non-linear regression to a four-parameter dose-response curve Y=Bottom+(Top−Bottom)/(1+10^((Log EC50−X)*HillSlope)) using the log(agonist) vs. response—Variable slope function of GraphPad Prism software (http://graphpad.com/help/prism5/prism5help.html?usingnonlinear_regression_step_by_s.ht m).

Series [2] deals with T2, Thromboxane receptor (TP) (Homo sapiens, UniProt P21731).
T2 construct: expressed in transfected cells; host or cells: HEK-293
T2 sequence (P21731 1-343): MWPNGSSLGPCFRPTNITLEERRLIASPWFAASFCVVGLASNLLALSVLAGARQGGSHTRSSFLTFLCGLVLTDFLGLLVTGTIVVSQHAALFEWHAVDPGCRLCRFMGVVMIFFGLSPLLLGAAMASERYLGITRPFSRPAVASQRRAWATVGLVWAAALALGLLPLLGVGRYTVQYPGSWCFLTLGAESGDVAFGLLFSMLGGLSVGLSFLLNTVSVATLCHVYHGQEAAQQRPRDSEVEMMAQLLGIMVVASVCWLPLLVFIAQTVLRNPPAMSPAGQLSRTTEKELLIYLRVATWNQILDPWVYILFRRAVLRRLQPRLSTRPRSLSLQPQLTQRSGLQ
Nature of the series: TP Receptor Radioligand Binding ([3H] SQ-29548). The following applies: Human recombinant HEK-293 cells. The method, then:
Using these experimental conditions Human recombinant HEK-293 cells, Ligand: 5 nM [^3H] […] J Pharmacol Exp Ther. 245(3):786-92792, and Saussy D L Jr, Mais D E, Burch R M and Halushka P V (1986) Identification of a putative thromboxane A2/prostaglandin H2 receptor in human platelet membranes. J Biol Chem. 261(7):3025-9.
as §1

The target in another series is T3, Thromboxane synthase (Homo sapiens, UniProt P24557).
T3 sequence (P24557 1-533): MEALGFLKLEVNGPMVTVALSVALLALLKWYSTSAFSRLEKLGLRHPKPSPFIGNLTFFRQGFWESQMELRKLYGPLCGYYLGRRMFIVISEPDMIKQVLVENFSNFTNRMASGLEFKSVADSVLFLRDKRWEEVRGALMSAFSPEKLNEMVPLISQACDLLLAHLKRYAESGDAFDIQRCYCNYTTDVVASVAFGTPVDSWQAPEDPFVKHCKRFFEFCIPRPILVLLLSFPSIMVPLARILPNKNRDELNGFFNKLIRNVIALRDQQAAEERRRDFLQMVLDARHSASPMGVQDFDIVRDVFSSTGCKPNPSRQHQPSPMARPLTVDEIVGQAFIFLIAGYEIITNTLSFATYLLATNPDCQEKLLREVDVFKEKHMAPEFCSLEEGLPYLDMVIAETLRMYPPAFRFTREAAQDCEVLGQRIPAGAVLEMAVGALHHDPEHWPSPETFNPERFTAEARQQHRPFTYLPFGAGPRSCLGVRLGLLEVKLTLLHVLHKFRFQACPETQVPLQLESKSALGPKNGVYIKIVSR
Nature of the series: Human Platelet Thromboxane Synthase Assay. It counts as biochemical. The protocol:
Using these experimental conditions Substrate: 10 μM PGH2, Vehicle: 1% DMSO
Pre-incubation time, temp: 15 min at 25° C., Incubation time, temp: 3 min at 25° C.
1. Imidazole derivatives. J Med Chem. 24(10):1139-48.
as §1

On to `COC(=O)CC/C=C\C[C@@H]1COC(c2ccccc2Cl)O[C@@H]1c1ccccc1O` (stereo partly shown) [Prodrug 2], for which the “conversion of the prodrug to the corresponding acid” value in series [1] was “the prodrug is converted to the corresponding acid”. In series [1] ([3H]-rosiglitazone 10 nM, 120 min at 4° C., compared with the acid of Example 1), the “binding to PPARgamma” value is listed as “binds to PPARgamma at least as well as the corresponding acid”.

Take `COc1ccc(C(=O)NCc2cccnc2)cc1C(=O)NCc1cccnc1` [Picotamide]: in the series with TP Receptor, the “Platelet aggregation Rabbit Inhibition (%)” value was 21%.

Regarding `COc1ccccc1[C@H]1O[C@@H](c2ccccc2Cl)OC[C@H]1C/C=C\CCC(=O)O` [Compound 5, (Z)-6-((2S,4S,5R)-2-(2-chlorophenyl)-4-(2-methoxyphenyl)-1,3-dioxan-5-yl)hex-4-enoic acid], in series [2], the IC50 amounted to 0.0234 µM and the Ki came to 0.0153 µM. The same compound came in with an IC50 at Thromboxane synthase of 20.4 µM. Moreover, on Thromboxane synthase (at 30 μM), the inhibition at 30 µM came out at 62%.

Take `COc1ccccc1[C@@H]1O[C@H](c2ccccc2Cl)OC[C@@H]1C/C=C\CCC(=O)O` [Compound 4, (Z)-6-((2R,4R,5S)-2-(2-chlorophenyl)-4-(2-methoxyphenyl)-1,3-dioxan-5-yl)hex-4-enoic acid]: in series [2], the IC50 is 1.87 µM and the Ki was 1.22 µM. Half-maximal inhibition against Thromboxane synthase (IC50) was put at 17.5 µM.
